The results in this text go back to US20060104903A1, “Model for evaluating the efficacy of locally applied antiproliferatives or other agents on neointimal hyperplasia, immunohistochemical and vascular cell cycle changes in balloon-injured rat carotid arteries” (priority 2004, published 2006).

The structures appear in SMILES notation.

Holding throughout (format): in vivo
Experiment [1] deals with balloon-injured rat carotid artery. The experiment is described as follows: Neointimal hyperplasia in balloon-injured rat carotid artery, histomorphometric analysis after perivascular delivery. As to the method:
(§1) The delivery vehicle may comprise any suitable device. In the exemplary embodiment, the delivery vehicle comprises silastic tubing as illustrated in FIG. 1. The silastic tubing 300 is about 10 mm long with an outside diameter of about 1.5 mm. The total luminal volume, based upon emperical measurement, is about 20 μL. It is important to note that the silastic tubing 300 may comprise any suitable length. The length of the tubing is determined by the amount of artery resected. The silastic tubing may comprise a notch 302 on one end to facilitate placement thereof over the carotid artery. The silastic tubing is then autoclaved prior to surgery. The silastic tubing is filled with about 20 μL of the pluronic gel comprising a suspension, solution or combination suspension and solution of test agent. The pluronic gel formulation to be encased within the silastic tubing is dispersed into the silastic tubing utilizing a 20 μL adjustable pipette with a sterile tip. The pluronic vehicle or pluronic drug solution remains on ice until immediately before pipetting and dispensing into the silastic tubing.
(§2) The next step in the process comprises the surgical procedure. The rat is anesthetized prior to surgical intervention. The rat may be anesthetized utilizing any number of anesthetizing agents, both inhalational and/or injectable. […]

Experiment [2] has the same test system. The experiment is described as follows: Vascular wall cell cycle and apoptotic nuclei in injured rat carotid artery, flow cytometry (propidium iodide). The following applies: 200 μg in pluronic gel suspension, perivascular, seven days post injury. As to the method:
as §1, §2

Experiment [3] has the same test system. Briefly: Cell proliferation in injured rat carotid artery, PCNA immunohistochemistry. The settings on record: 200 μg in pluronic gel suspension, perivascular, seven days post injury. As to the method: as §1, §2

For the compound `CC(=O)O[C@H]1C(=O)[C@@]2(C)[C@H]([C@H](OC(=O)c3ccccc3)[C@]3(O)C[C@H](OC(=O)[C@H](O)[C@@H](NC(=O)c4ccccc4)c4ccccc4)C(C)=C1C3(C)C)[C@]1(OC(C)=O)CO[C@@H]1C[C@@H]2O` [paclitaxel], the “neointima formation (FIG. 3 slides)” value in experiment [1] (200 μg in pluronic gel, perivascular administration) is “substantial-reduction”. In addition, in experiment [1] (perivascular application), the “neointimal formation (FIG. 2)” value was “significantly reduced”. Moreover, in experiment [2], the “percentage nuclei in the G0/G1 phases” value is recorded as “increases” and the “total percentage of apoptotic cells in the injured vessel wall” value is given as “increase”. The “neointimal proliferation (PCNA labeling)” value in experiment [3] was “significantly reduce”.

Turning to `CC[C@@]1(O)C(=O)OCc2c1cc1n(c2=O)Cc2cc3c(CN(C)C)c(O)ccc3nc2-1` [Topotecan], the “neointimal proliferation (PCNA labeling)” value in experiment [3] is on record as “substantially no effect”.
